Measurements as given in patent US20090137686A1, “Treatment of Ophthalmic Diseases” (priority 2005, published 2009).

System: IFNγ secretion in whole blood stimulated with heat-killed Staphylococcus epidermidis
Assay: in vitro whole blood assay stimulated with Staphylococcus epidermidis, measuring IFNγ
Assay type: cell-based
Settings: 24 hours; for inhibitory activity of IFNg secretion resulting from Staphylococcus epidermidis stimulation: IFNγ by ELISA; for IFNγ concentration: at 62.5 nMol test compound, cut from 4500 pg/ml; for inhibition of IFNγ: lowest concentration of 62.5 nMol
From the text: The following experimental work illustrates the invention. This involves an in vitro whole blood assay stimulated with Staphylococcus epidermidis, measuring IFNγ. IFNγ as a key mediator in pathological processes in ocular inflammatory disease, namely age-related macular degeneration (Penfold et al, 2002) and proliferative vitreoretinopathy (El-Ghrably et al, 2001). 1:100 diluted heat-killed Staphylococcus epidermidis in conjunction with various concentrations of test compound (in a stock DMSO solution) was added to a 100-fold volume of whole blood. After 24 hours, whole blood was diluted 1:4 and IFNγ was measured by enzyme-linked immuno-absorptive assay.

In the case of `CC(NCCc1ccc(O)cc1)C(O)c1ccc(O)cc1` (racemic) [ritodrine racemate, ritodrine], the “inhibitory activity of IFNg secretion resulting from Staphylococcus epidermidis stimulation” value is reported as “strong inhibitory activity”, the IFNγ concentration is reported as 1500 pg/mL and the “inhibition of IFNγ” value is reported as 66%.
`CC(C(O)c1ccc(O)cc1)N1CCC(Cc2ccccc2)CC1` (racemic) [ifenprodil erythro racemate, ifenprodil] was tested, and the “inhibitory activity of IFNg secretion resulting from Staphylococcus epidermidis stimulation” value was “strong inhibitory activity”, the IFNγ concentration was 1500 pg/mL and the “inhibition of IFNγ” value was 66%.
